Experimental data from publication PMC10698194 (Nature Communications, 2023).
“And” between values parts separate entries of the source, which are not always exact repeats. Equal values may be shown once. Read-outs that look alike come from different tables or passages of the source.

Key:
mouse KOR, Gαi2 = molecular target: T1, mouse KOR, Gαi2 (Mus musculus, UniProt P33534); test: TRUPATH BRET G protein assay, Gαi2; assay type: cell-based
T1 construct: expressed in transfected cells; host or cells: HEK293T (ATCC, CRL-3216), transient

mouse KOR, Gαz = mouse KOR, Gαz (Mus musculus, UniProt P33534); test: TRUPATH BRET G protein assay, Gαz; assay type: cell-based
human KOR [1] = molecular target: T2, human KOR (Homo sapiens, UniProt P41145); test: cell-based; set-up: expressed in transfected cells; host or cells: HEK293, transient
mouse KOR, Gαi3 = mouse KOR, Gαi3 (Mus musculus, UniProt P33534); test: TRUPATH BRET G protein assay, Gαi3; assay type: cell-based; conditions: TRUPATH; read-out: Emax (%) Gαi3
mouse KOR, GαoA = mouse KOR, GαoA (Mus musculus, UniProt P33534); test: TRUPATH BRET G protein assay, GαoA; assay type: cell-based; conditions: TRUPATH; read-out: Emax (%) GαoA
mouse KOR, Gαgustducin = mouse KOR, Gαgustducin (Mus musculus, UniProt P33534); test: TRUPATH BRET G protein assay, Gαgustducin; assay type: cell-based; conditions: read-out: Emax (%) Gαgustducin
mouse KOR, GαoB = mouse KOR, GαoB (Mus musculus, UniProt P33534); test: TRUPATH BRET G protein assay, GαoB; assay type: cell-based; conditions: TRUPATH; read-out: Emax (%) GαoB
mouse KOR, Gαi1 = mouse KOR, Gαi1 (Mus musculus, UniProt P33534); test: TRUPATH BRET G protein assay, Gαi1; assay type: cell-based; conditions: TRUPATH; read-out: Emax (%) Gαi1
human KOR WT [2] = molecular target: T3, human KOR WT (Homo sapiens, UniProt P41145); assay type: cell-based
T3 construct: FLAG; expressed in transfected cells; host or cells: HEK293T, transient

human KOR E209A [3] = molecular target: T4, human KOR E209A (Homo sapiens, UniProt P41145, E209A); test: BRET β-arrestin-2 biosensor assay; assay type: cell-based
T4 construct: FLAG; expressed in transfected cells; host or cells: HEK293 / HEK293T, transient

mouse KOR [4] = molecular target: T5, mouse KOR (Mus musculus, UniProt P33534); test: cell-based; set-up: expressed in transfected cells; host or cells: HEK293T, transient; conditions: for β-arrestin-2 recruitment, normalized: replicates
Target sequence in this assay (P33534 whole entry): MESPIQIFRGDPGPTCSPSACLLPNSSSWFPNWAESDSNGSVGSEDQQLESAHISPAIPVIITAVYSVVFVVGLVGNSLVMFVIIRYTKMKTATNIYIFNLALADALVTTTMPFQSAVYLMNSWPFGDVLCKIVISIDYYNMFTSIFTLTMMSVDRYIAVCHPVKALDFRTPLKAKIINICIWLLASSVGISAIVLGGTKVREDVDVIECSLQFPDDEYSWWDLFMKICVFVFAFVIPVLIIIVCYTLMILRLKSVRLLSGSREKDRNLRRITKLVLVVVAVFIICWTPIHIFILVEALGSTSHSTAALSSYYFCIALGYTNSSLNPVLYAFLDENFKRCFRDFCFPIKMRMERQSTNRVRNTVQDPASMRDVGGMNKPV
Target sequence in this assay (P32121 whole entry partner): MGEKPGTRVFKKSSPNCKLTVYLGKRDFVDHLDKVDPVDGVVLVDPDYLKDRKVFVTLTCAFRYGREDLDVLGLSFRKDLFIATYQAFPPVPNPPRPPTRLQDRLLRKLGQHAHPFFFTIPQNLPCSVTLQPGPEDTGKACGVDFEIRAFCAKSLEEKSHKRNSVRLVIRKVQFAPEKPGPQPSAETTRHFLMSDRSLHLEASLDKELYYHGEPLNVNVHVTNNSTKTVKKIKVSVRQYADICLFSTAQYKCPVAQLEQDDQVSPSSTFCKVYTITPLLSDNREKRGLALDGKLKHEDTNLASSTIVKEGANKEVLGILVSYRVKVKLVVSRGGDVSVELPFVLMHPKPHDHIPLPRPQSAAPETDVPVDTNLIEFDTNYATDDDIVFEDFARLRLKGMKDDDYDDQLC

human KOR E297A [5] = molecular target: T6, human KOR E297A (Homo sapiens, UniProt P41145, E297A); assay type: cell-based
T6 construct: FLAG; expressed in transfected cells; host or cells: HEK293T

human KOR E209A [6] = molecular target: T4, human KOR E209A; assay type: cell-based
mouse KOR [7] = molecular target: T5, mouse KOR; test: cell-based; set-up: expressed in transfected cells
Target sequence in this assay (P33534 whole entry): as the sequence (P33534 whole entry) above

human KOR WT [8] = molecular target: T3, human KOR WT; test: BRET β-arrestin-2 biosensor assay; assay type: cell-based
in vitro = conditions: human, serum, serum stability, amount remaining, Figure S15
Experimental: (§1) Blood was drawn from healthy volunteers devoid of any medication for 14 days from the antecubital vein using 21 G needles and collected in a serum clot activator tube (4 mL tubes, Greiner bio-one). […] Volunteers gave written informed consent before blood donation. […] Blood samples were collected into Vacuette® clot activator tubes (Greiner Bio-One, Austria). After clotting of about 2 h, the samples were centrifuged at 2200 × g for 15 min at 22 °C. The serum was removed and centrifuged again to remove lipids and cell particles at 16,000 × g at 4 °C for 20 min. […] The samples were incubated at 37 °C under continuous shaking at 300 rotations-per-minute. […] The samples were mixed well and incubated on ice for 10 min. For the protein precipitation, 30 µL of a 20% (w/v) trichloroacetic acid was added and incubated on ice for 15 min. The clear supernatant was harvested by centrifugation at 16,000 × g at 4 °C for 20 min and this sample was used for HPLC analysis. The chromatography HPLC system was a ThermoFisher Ultimate 3000 equipped with a pump, autosampler and single wavelength detector. […] The remaining peptide was calculated relative to the AUC at time point zero. The data points were fitted to a one-phase decay function and to determine the resulting half-life of the peptide in serum.
(§2) 0.1% trifluoroacetic acid in water and acetonitrile/water trifluoroacetic acid 90/10/0.1% (v/v/v) with a
linear separation gradient over 30 min.

human KOR L309A [9] = molecular target: T7, human KOR L309A (Homo sapiens, UniProt P41145, L309A); assay type: cell-based
T7 construct: FLAG; expressed in transfected cells; host or cells: HEK293T

human KOR WT [10] = molecular target: T3, human KOR WT; test: cAMP inhibition assay normalized to salvinorin A; assay type: cell-based
[11] = human
Experimental: as §1, §2
linear separation gradient over 30 min.

human KOR E297A [12] = molecular target: T6, human KOR E297A; test: BRET β-arrestin-2 biosensor assay; assay type: cell-based
human KOR L309A [13] = molecular target: T7, human KOR L309A; test: BRET β-arrestin-2 biosensor assay; assay type: cell-based
mouse KOR [14] = molecular target: T5, mouse KOR; test: biochemical; assay type: binding; set-up: expressed in transfected cells; conditions: for specific [3H]DPN binding, normalized to 100%: replicates
Target sequence in this assay (P33534 whole entry): as above

human MOR = molecular target: T8, human MOR (Homo sapiens, UniProt P35372); test: [35S]GTPγS binding assay, CHO membranes; assay type: biochemical
T8 construct: expressed in transfected cells

human KOR [15] = molecular target: T2, human KOR; test: [35S]GTPγS binding assay, CHO membranes; assay type: biochemical; set-up: expressed in transfected cells; conditions: for stimulation of [35S]GTPγS binding, normalized: replicates
human DOR = molecular target: T9, human DOR (Homo sapiens, UniProt P41143); test: [35S]GTPγS binding assay, CHO membranes; assay type: biochemical
T9 construct: expressed in transfected cells
T9 sequence (P41143 whole entry): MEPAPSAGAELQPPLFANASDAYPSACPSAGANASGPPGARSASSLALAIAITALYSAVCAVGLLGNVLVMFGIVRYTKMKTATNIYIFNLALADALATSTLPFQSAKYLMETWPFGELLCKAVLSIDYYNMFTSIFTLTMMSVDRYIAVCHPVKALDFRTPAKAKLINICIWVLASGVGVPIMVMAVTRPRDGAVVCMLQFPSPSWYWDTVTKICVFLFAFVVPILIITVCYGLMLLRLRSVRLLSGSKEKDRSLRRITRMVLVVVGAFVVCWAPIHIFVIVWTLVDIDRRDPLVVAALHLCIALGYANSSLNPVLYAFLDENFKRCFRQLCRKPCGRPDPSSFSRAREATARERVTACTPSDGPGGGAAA

T2 sequence (P41145 whole entry): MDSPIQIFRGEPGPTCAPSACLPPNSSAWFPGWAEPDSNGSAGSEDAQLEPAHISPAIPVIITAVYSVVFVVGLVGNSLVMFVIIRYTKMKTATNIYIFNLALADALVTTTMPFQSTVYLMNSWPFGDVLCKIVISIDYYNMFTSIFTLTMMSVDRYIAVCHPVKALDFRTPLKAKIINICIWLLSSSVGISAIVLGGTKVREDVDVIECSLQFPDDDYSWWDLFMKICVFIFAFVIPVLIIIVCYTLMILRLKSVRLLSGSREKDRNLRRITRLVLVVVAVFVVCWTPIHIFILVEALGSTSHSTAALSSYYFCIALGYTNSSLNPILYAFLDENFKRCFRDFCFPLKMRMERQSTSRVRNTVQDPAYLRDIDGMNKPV
T3 sequence (P41145 whole entry): as above
T1 sequence (P33534 whole entry): as the sequence (P33534 whole entry) above
T6 sequence (P41145 whole entry E297A): as the sequence (P41145 whole entry) above, with E297A counted along it
Chain of mouse KOR, Gαz (P33534 whole entry): as the sequence (P33534 whole entry) above
Chain of mouse KOR, Gαz (P19086 2-355 partner): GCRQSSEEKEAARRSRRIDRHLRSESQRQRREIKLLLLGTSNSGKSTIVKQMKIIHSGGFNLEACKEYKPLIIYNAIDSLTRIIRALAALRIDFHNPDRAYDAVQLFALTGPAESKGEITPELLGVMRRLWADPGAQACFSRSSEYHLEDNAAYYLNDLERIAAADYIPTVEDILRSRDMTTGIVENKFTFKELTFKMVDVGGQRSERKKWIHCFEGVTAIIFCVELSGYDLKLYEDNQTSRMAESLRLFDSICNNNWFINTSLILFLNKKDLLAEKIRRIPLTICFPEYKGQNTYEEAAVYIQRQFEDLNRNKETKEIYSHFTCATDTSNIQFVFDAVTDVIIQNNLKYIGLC
T4 sequence (P41145 whole entry E209A): as the sequence (P41145 whole entry) above, with E209A counted along it
T8 sequence (P35372 whole entry): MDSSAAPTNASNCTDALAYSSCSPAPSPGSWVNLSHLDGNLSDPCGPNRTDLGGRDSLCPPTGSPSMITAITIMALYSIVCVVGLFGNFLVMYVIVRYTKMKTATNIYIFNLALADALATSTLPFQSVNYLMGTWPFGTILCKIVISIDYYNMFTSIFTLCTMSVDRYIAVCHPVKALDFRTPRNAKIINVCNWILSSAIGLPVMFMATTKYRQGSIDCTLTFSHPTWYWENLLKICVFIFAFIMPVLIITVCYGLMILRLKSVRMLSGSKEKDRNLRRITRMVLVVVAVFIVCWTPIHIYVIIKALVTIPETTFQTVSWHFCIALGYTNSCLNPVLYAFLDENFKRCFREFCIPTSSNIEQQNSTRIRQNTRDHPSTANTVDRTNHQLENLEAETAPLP
T7 sequence (P41145 whole entry L309A): as the sequence (P41145 whole entry) above, with L309A counted along it
Chain of mouse KOR, Gαi1 (P33534 whole entry): as the sequence (P33534 whole entry) above
Chain of mouse KOR, Gαi1 (P63096 2-354 partner): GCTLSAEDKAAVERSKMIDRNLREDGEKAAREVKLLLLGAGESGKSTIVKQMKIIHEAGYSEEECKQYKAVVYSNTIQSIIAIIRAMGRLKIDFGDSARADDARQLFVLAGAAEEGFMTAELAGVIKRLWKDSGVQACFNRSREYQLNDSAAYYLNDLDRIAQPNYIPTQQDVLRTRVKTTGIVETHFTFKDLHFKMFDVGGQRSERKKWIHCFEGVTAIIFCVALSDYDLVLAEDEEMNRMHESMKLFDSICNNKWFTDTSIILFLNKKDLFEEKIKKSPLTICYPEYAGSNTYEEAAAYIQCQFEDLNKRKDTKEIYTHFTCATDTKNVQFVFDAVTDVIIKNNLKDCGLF
Chain of mouse KOR, Gαgustducin (P33534 whole entry): as the sequence (P33534 whole entry) above
Chain of mouse KOR, Gαgustducin (A8MTJ3 2-354 partner): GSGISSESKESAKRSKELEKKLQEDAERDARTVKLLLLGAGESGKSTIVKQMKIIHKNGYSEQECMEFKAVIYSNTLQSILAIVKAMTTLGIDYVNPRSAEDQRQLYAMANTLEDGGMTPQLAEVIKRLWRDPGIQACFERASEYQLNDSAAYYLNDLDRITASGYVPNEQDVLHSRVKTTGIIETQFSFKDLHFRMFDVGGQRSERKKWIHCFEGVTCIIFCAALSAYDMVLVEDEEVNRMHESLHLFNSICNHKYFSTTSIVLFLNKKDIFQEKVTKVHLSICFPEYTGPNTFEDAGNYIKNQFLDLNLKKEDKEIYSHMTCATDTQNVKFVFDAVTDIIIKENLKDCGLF
Chain of mouse KOR, GαoA (P33534 whole entry): as the sequence (P33534 whole entry) above
Chain of mouse KOR, GαoA (P09471 2-354 partner): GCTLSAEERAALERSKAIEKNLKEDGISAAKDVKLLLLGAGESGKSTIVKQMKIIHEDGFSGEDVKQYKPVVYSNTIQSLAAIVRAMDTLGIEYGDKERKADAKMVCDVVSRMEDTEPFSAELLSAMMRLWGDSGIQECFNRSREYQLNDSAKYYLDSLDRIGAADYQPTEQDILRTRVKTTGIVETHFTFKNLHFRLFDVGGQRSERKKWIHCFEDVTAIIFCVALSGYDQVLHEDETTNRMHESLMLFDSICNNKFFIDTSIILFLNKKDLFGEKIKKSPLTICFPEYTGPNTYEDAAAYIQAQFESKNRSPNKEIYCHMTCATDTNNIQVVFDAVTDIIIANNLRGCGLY
Chain of mouse KOR, GαoB (P33534 whole entry): as the sequence (P33534 whole entry) above
Chain of mouse KOR, GαoB (P09471 2-354 partner): as the sequence (P09471 2-354 partner) above
Chain of mouse KOR, Gαi3 (P33534 whole entry): as the sequence (P33534 whole entry) above
Chain of mouse KOR, Gαi3 (P08754 2-354 partner): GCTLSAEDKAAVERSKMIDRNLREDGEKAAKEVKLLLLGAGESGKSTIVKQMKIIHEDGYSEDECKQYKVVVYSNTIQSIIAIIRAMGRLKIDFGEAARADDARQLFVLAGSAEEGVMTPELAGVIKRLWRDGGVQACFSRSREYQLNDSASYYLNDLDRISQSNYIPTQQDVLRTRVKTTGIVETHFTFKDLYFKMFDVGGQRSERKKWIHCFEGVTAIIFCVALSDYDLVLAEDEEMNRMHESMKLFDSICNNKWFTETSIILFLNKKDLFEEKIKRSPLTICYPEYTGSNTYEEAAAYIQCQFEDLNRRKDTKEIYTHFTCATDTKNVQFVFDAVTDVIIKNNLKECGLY

O=C(NC1C=CC2C3Cc4ccc(O)c5c4C2(CCN3CC2CC2)C1O5)c1cccc(I)c1 (stereo not shown) [MP1104]
potency (log EC50) Gαi2 (mouse KOR, Gαi2; Fig. 3i spider plot): -9.607
Gαi2, normalized response (single replicate values) (mouse KOR, Gαi2; Log [ligand] (M) -5): 68.8651 and 55.859 and 33.3938 and 78.3335 and 54.4028 and 51.6416 and 70.9702 and 67.6827
Gαi2, normalized response (single replicate values) (mouse KOR, Gαi2; Log [ligand] (M) -6): 66.5004 and 68.8651 and 52.3118 and 47.96 and 45.1988 and 59.9253 and 82.9355 and 80.6889
Gαi2, normalized response (single replicate values) (mouse KOR, Gαi2; Log [ligand] (M) -7): 70.0475 and 61.7708 and 39.3057 and 73.7314 and 51.6416 and 42.4375 and 78.3335 and 51.1294
Gαi2, normalized response (single replicate values) (mouse KOR, Gαi2; Log [ligand] (M) -8): 83.0537 and 70.0475 and 49.9471 and 81.0947 and 82.9355 and 89.3784 and 101.344 and 61.7708
Gαi2, normalized response (single replicate values) (mouse KOR, Gαi2; Log [ligand] (M) -9): 49.9471 and 40.488 and 71.2299 and 59.0049 and 80.1743 and 78.3335 and 46.1192 and 33.3938
Gαi2, normalized response (single replicate values) (mouse KOR, Gαi2; Log [ligand] (M) -10): 20.3876 and 60.5885 and 12.111 and 42.4375 and 46.1192 and 22.1885 and 25.8702 and 19.2052
Gαi2, normalized response (single replicate values) (mouse KOR, Gαi2; Log [ligand] (M) -11): -28.0899 and -9.172 and -25.7252 and 25.8702 and -9.105 and 27.711 and -46.8421 and 9.7462
Gαi2, normalized response (single replicate values) (mouse KOR, Gαi2; Log [ligand] (M) -12): 21.57 and -2.078 and 28.6643 and 3.78 and 2.86 and 9.303 (2×) and 6.199
Emax (mouse KOR, Gαi2; TRUPATH): 65 ± 6%
Gαi2 (Figure 3j) (mouse KOR, Gαi2; source data of Figure 3j, U50,488 about 100): 64.9839
highest potency (mouse KOR, Gαz; Gαz subtype): picomolar range
Emax (mouse KOR, Gαz; TRUPATH): 101 ± 3%
potency (log EC50) β-arrestin-2 (human KOR [1]): -8.493
β-arrestin-2 (Figure 3j) (human KOR [1]): 91
Emax (human KOR [1]; HEK293, read-out: Emax β-arrestin-1 recruitment): 91 ± 8%
Emax (mouse KOR, Gαi3): 85 ± 3%
Emax (mouse KOR, GαoA): 87 ± 7%
Emax (mouse KOR, Gαgustducin): 95 ± 5%
Emax (mouse KOR, GαoB): 101 ± 8%
Emax (mouse KOR, Gαi1): 100 ± 4%

CC[C@H](C)[C@H](NC(=O)[C@H](CCCN=C(N)N)NC(=O)[C@H](CCCN=C(N)N)NC(=O)[C@H](CC(C)C)NC(=O)[C@H](Cc1ccccc1)NC(=O)CNC(=O)CNC(=O)[C@@H](N)Cc1ccc(O)cc1)C(=O)N[C@@H](CCCN=C(N)N)C(=O)N1CCC[C@H]1C(=O)N[C@@H](CCCCN)C(=O)N[C@@H](CC(C)C)C(=O)N[C@@H](CCCCN)C(N)=O [dynA1-13]
EC50 (human KOR WT [2]): 0.0437 nM
EC50 (human KOR E209A [3]): 6.61 nM
EC50 (mouse KOR [4]; EC50 β-arrestin-2 recruitment): 31 nM
EC50 (mouse KOR [4]; potency (log EC50) β-arrestin-3): 31 nM
EC50 (human KOR E297A [5]): 0.204 nM
EC50 (human KOR E209A [6]): 0.148 nM
EC50 (mouse KOR [7]): 4.9 ± 1.8 nM
EC50 (human KOR WT [8]): 0.617 nM
remaining at 5 min (in vitro): 106%
remaining at 10 min (in vitro): 85%
remaining at 20 min (in vitro): 66%
remaining at 40 min (in vitro): 33%
remaining at 1 h (in vitro): 7%
remaining at 2 h (in vitro): 2%
remaining at 4 h (in vitro): 0%
remaining at 6 h (in vitro): 0.1%
remaining at 24 h (in vitro): 0.1%
remaining at 48 h (in vitro): 5%
EC50 (human KOR L309A [9]): 0.0302 nM
EC50 (human KOR WT [10]): 0.00501 nM
serum stability, amount remaining, Figure S15 [11]: 100
serum stability, amount remaining, Figure S15 ([11]; 40 min): 30
serum stability, amount remaining, Figure S15 ([11]; 1 h): 6
EC50 (human KOR E297A [12]): 7.94 nM
EC50 (human KOR L309A [13]): 1.32 nM

C=CCN1CC[C@]23c4c5ccc(O)c4O[C@H]2[C@H](N)CC[C@@]3(O)[C@H]1C5 [β-NalA, β-naloxamine]
Ki (mouse KOR [14]): 72 nM
specific [3H]DPN binding, normalized to 100% (mouse KOR [14]; Log [ligand] (M) -5): 4.737 and -0.7945 and 2.618
specific [3H]DPN binding, normalized to 100% (mouse KOR [14]; Log [ligand] (M) -5.5): 7.624 and 1.593 and 6.477
specific [3H]DPN binding, normalized to 100% (mouse KOR [14]; Log [ligand] (M) -6): 15.6906 and 8.934 and 15.8979
specific [3H]DPN binding, normalized to 100% (mouse KOR [14]; Log [ligand] (M) -6.5): 35.1232 and 21.428 and 37.6169
specific [3H]DPN binding, normalized to 100% (mouse KOR [14]; Log [ligand] (M) -7): 55.6281 and 51.2816 and 59.6036
specific [3H]DPN binding, normalized to 100% (mouse KOR [14]; Log [ligand] (M) -7.5): 78.1171 and 80.8645 and 81.4583
specific [3H]DPN binding, normalized to 100% (mouse KOR [14]; Log [ligand] (M) -8): 95.8025 and 95.1499 and 93.7293
specific [3H]DPN binding, normalized to 100% (mouse KOR [14]; Log [ligand] (M) -8.5): 97.8462 and 101.481 and 96.8345
specific [3H]DPN binding, normalized to 100% (mouse KOR [14]; Log [ligand] (M) -9): 98.6307 and 97.8789 and 97.5636
specific [3H]DPN binding, normalized to 100% (mouse KOR [14]; Log [ligand] (M) -9.5): 100
EC50 (mouse KOR [4]): 15 nM
β-arrestin-3 (Figure 3j) (mouse KOR [4]): 50.66
Emax (mouse KOR [4]; HEK-293T, read-out: Emax β-arrestin-2 recruitment): 51%
β-arrestin-2 recruitment, normalized (mouse KOR [4]; Log [ligand] (M) -5): 75.0642 and 33.7213 and 53.9146
β-arrestin-2 recruitment, normalized (mouse KOR [4]; Log [ligand] (M) -6): 47.1252 and 26.1295 and 56.8071
β-arrestin-2 recruitment, normalized (mouse KOR [4]; Log [ligand] (M) -7): 55.6969 and 39.8004 and 43.7179
β-arrestin-2 recruitment, normalized (mouse KOR [4]; Log [ligand] (M) -8): 23.8448 and 3.34 and 20.2841
β-arrestin-2 recruitment, normalized (mouse KOR [4]; Log [ligand] (M) -9): 18.9925 and 16.6241
β-arrestin-2 recruitment, normalized (mouse KOR [4]; Log [ligand] (M) -10): 9.149 and -15.1009 and 26.0906
agonist response at MOR, Figure S13a (human MOR; Log [ligand] (M) -9): 0.0
EC50 (M) MOR (human MOR; [35S]GTPγS): no stimulation up to 10 µM
EC50 (human KOR [15]): 150 nM
Emax (human KOR [15]): 22%
stimulation of [35S]GTPγS binding, normalized (human KOR [15]; Log [ligand] (M) -5): 26.3 and 15.7 and 17.2
stimulation of [35S]GTPγS binding, normalized (human KOR [15]; Log [ligand] (M) -6): 26.7 and 25.9 and 13
stimulation of [35S]GTPγS binding, normalized (human KOR [15]; Log [ligand] (M) -6.5): 25.5 and 13.8
stimulation of [35S]GTPγS binding, normalized (human KOR [15]; Log [ligand] (M) -7): 15.4 and 11.8 and 3.2
stimulation of [35S]GTPγS binding, normalized (human KOR [15]; Log [ligand] (M) -7.5): 4.1
stimulation of [35S]GTPγS binding, normalized (human KOR [15]; Log [ligand] (M) -8): 17.5 and 5.8 and 1.8
stimulation of [35S]GTPγS binding, normalized (human KOR [15]; Log [ligand] (M) -8.5): 4
stimulation of [35S]GTPγS binding, normalized (human KOR [15]; Log [ligand] (M) -9): 20.6 and 20.7 and 0
stimulation of [35S]GTPγS binding, normalized (human KOR [15]; Log [ligand] (M) -10): 8.5 and 3.1 and 0.3
stimulation of [35S]GTPγS binding, normalized (human KOR [15]; Log [ligand] (M) -11): 8.8 and 6 and 1
stimulation of [35S]GTPγS binding, normalized (human KOR [15]; Log [ligand] (M) -12): 2
agonist response at DOR, Figure S13b (human DOR; Log [ligand] (M) -5): 29.5 and 25.6
agonist response at DOR, Figure S13b (human DOR; Log [ligand] (M) -5.5): 26.4 and 22
agonist response at DOR, Figure S13b (human DOR; Log [ligand] (M) -6.5): 11.6 and 22.3
agonist response at DOR, Figure S13b (human DOR; Log [ligand] (M) -7): 11.8 and 10.9 and 6.8
EC50 (M) DOR (human DOR; [35S]GTPγS): no stimulation up to 10 µM
EC50 (mouse KOR [7]): 130 nM
Emax (mouse KOR [7]; HEK-293T, read-out: Emax cAMP assay): 61%
